Counter-ions that a name gives are not always drawn.
Biological target: T1, CCR2 (Homo sapiens, UniProt P41597)
T1 construct: host or cells: THP-1 (human monocytic cell line)
T1 sequence (P41597 1-360 isoform P41597-2): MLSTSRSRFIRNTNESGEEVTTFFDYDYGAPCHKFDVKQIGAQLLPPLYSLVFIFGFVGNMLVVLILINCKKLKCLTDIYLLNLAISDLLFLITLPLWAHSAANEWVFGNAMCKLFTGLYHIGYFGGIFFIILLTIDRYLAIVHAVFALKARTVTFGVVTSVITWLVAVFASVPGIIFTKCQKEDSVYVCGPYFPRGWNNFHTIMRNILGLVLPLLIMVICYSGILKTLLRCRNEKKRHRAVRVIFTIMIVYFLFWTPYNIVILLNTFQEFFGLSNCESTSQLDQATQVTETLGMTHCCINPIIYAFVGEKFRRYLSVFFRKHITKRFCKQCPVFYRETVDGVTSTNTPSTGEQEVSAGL
Assay: MCP-1 Receptor Binding Assay in THP-1 Cells (125I labeled MCP-1)
Conditions: 0.5 nM 125I labeled MCP-1, 2 hours at 30° C., read-out: Inhibition of MCP-1 Binding IC50, CCR2 Binding
Method: Compounds of the invention were subjected to various representative biological tests. […] MCP-1 Receptor Binding Assay in THP-1 Cells
Human monocytic cell line THP-1 cells were obtained from American Type Culture Collection (Manassas, Va., USA). […] The cell density was maintained […].
1 μM cold MCP-1 was used for nonspecific binding.

Compared with `O=C(CNC(=O)c1cccc(C(F)(F)F)c1)NC1CN(C2CCC(c3ccc(O)cn3)CC2)C1` (centres unmarked) [Example 4, N-({1-[4-(5-Hydroxy-pyridin-2-yl)-cyclohexyl]-azetidin-3-ylcarbamoyl}-methyl)-3-trifluoromethyl-benzamide hemisuccinate salt], `Nc1ccc(C2CCC(N3CC(NC(=O)CNC(=O)c4cccc(C(F)(F)F)c4)C3)CC2)nc1` (centres unmarked) [Example 21, N-({1-[4-(5-Amino-pyridin-2-yl)-cyclohexyl]-azetidin-3-ylcarbamoyl}-methyl)-3-trifluoromethyl-benzamide] is 6.5-fold higher in IC50: 13 nM for the first, 85 nM for the second. The first is the more potent here.

Going from `O=C(CNC(=O)c1cccc(C(F)(F)F)c1)NC1CN(C2CCC(c3nc4n(n3)CCCC4)CC2)C1` (mixture of isomers) [Example 63, N-({1-[4-(5,6,7,8-Tetrahydro-[1,2,4]-triazolo[1,5-a]pyridin-2-yl)-cyclohexyl]-azetidin-3-ylcarbamoyl}-methyl)-3-trifluoromethyl-benzamide] to `O=C(CNC(=O)c1cccc(C(F)(F)F)c1)NC1CN(C2CCC(c3nsc(Cl)n3)CC2)C1` (mixture of isomers) [Example 62, N-({1-[4-(5-Chloro-[1,2,4]thiadiazol-3-yl)-cyclohexyl]-azetidin-3-ylcarbamoyl}-methyl)-3-trifluoromethyl-benzamide], the IC50 falls from 1500 nM to 390 nM (3.8-fold). The second is the more potent here.

Going from `CNc1ccncc1C1CCC(N2CC(NC(=O)CNC(=O)c3cccc(C(F)(F)F)c3)C2)CC1` (centres unmarked) [Example 29a, N-({1-[4-(4-Methylamino-pyridin-3-yl)-cyclohexyl]-azetidin-3-ylcarbamoyl}-methyl)-3-trifluoromethyl-benzamide] to `Nc1ccncc1C1CCC(N2CC(NC(=O)CNC(=O)c3cccc(C(F)(F)F)c3)C2)CC1` (single isomer, unassigned) [Example 27a, N-({1-[4-(4-Amino-pyridin-3-yl)-cyclohexyl]-azetidin-3-ylcarbamoyl}-methyl)-3-trifluoromethyl-benzamide], the IC50 rises from 1200 nM to 2700 nM (2.2-fold). The first is the more potent here.

`O=C(CNC(=O)c1cccc(C(F)(F)F)c1)NC1CN(C2CCC(c3cccc(=O)[nH]3)CC2)C1` (centres unmarked) [Example 47, N-({1-[4-(6-Oxo-1,6-dihydro-pyridin-2-yl)-cyclohexyl]-azetidin-3-ylcarbamoyl}-methyl)-3-trifluoromethyl-benzamide] and `O=C(CNC(=O)c1cccc(C(F)(F)F)c1)NC1CN(C2CCC(c3ccc(=O)[nH]c3)CC2)C1` (single isomer, unassigned) [Example 37a, N-({1-[4-(6-Oxo-1,6-dihydro-pyridin-3-yl)-cyclohexyl]-azetidin-3-ylcarbamoyl}-methyl)-3-trifluoromethyl-benzamide] are within 1.5-fold of each other in IC50: 180 nM for the first, 170 nM for the second.

`Nc1ncccc1C1CCC(N2CC(NC(=O)CNC(=O)c3cccc(C(F)(F)F)c3)C2)CC1` (single isomer, unassigned) [Example 31a, N-({1-[4-(2-Amino-pyridin-3-yl)-cyclohexyl]-azetidin-3-ylcarbamoyl}-methyl)-3-trifluoromethyl-benzamide] and `COc1ncccc1C1CCC(N2CC(NC(=O)CNC(=O)c3cccc(C(F)(F)F)c3)C2)CC1` (centres unmarked) [Example 2, N-({1-[4-(2-Methoxy-pyridin-3-yl)-cyclohexyl]-azetidin-3-ylcarbamoyl}-methyl)-3-trifluoromethyl-benzamide] are within 1.5-fold of each other in IC50: 150 nM for the first, 210 nM for the second.

Compared with `CS(=O)(=O)Nc1cccc(C2CCC(N3CC(NC(=O)CNC(=O)c4cccc(C(F)(F)F)c4)C3)CC2)n1` (centres unmarked) [Example 26, N-({1-[4-(6-Methanesulfonylamino-pyridin-2-yl)-cyclohexyl]-azetidin-3-ylcarbamoyl}-methyl)-3-trifluoromethyl-benzamide], `CS(=O)(=O)Nc1ccc(C2CCC(N3CC(NC(=O)CNC(=O)c4cccc(C(F)(F)F)c4)C3)CC2)nc1` (centres unmarked) [Example 15, N-({1-[4-(5-Methanesulfonyl-amino-pyridin-2-yl)-cyclohexyl]-azetidin-3-ylcarbamoyl}-methyl)-3-trifluoromethyl-benzamide] is 3.7-fold lower in IC50: 840 nM for the first, 230 nM for the second. The second is the more potent here.

First: O=C(CNC(=O)c1cccc(C(F)(F)F)c1)NC1CN(C2CCC(c3cnccc3O)CC2)C1 (centres unmarked) [Example 11, N-({1-[4-(4-Hydroxy-pyridin-3-yl)-cyclohexyl]-azetidin-3-ylcarbamoyl}-methyl)-3-trifluoromethyl-benzamide]
Second: COc1cnccc1C1CCC(N2CC(NC(=O)CNC(=O)c3cccc(C(F)(F)F)c3)C2)CC1 (centres unmarked) [Example 8, N-({1-[4-(3-Methoxy-pyridin-4-yl)-cyclohexyl]-azetidin-3-ylcarbamoyl}-methyl)-3-trifluoromethyl-benzamide]
The IC50 of the first is 18-fold higher: 460 nM for the first, 25 nM for the second.

First: O=C(CNC(=O)c1ccccc1)NC1CN(C2CCC(c3c[nH]c4ccccc34)CC2)C1 (centres unmarked) [Example 49, N-({1-[4-(1H-Indol-3-yl)-cyclohexyl]-azetidin-3-ylcarbamoyl}-methyl)-benzamide]
Second: Cn1cc(C2CCC(N3CC(NC(=O)CNC(=O)c4cccc(C(F)(F)F)c4)C3)CC2)ccc1=O (single isomer, unassigned) [Example 38a, N-({1-[4-(1-Methyl-6-oxo-1,6-dihydro-pyridin-3-yl)-cyclohexyl]-azetidin-3-ylcarbamoyl}-methyl)-3-trifluoromethyl-benzamide]
The IC50 of the first is higher: over 25000 nM for the first, 46 nM for the second.

`Nc1cncc(C2CCC(N3CC(NC(=O)CNC(=O)c4cccc(C(F)(F)F)c4)C3)CC2)c1` (centres unmarked) [Example 32, N-({1-[4-(5-Amino-pyridin-3-yl)-cyclohexyl]-azetidin-3-ylcarbamoyl}-methyl)-3-trifluoromethyl-benzamide] and `Nc1ccnc(C2CCC(N3CC(NC(=O)CNC(=O)c4cccc(C(F)(F)F)c4)C3)CC2)c1` (centres unmarked) [Example 33, N-({1-[4-(4-Amino-pyridin-2-yl)-cyclohexyl]-azetidin-3-ylcarbamoyl}-methyl)-3-trifluoromethyl-benzamide] are within 1.5-fold of each other in IC50: 320 nM for the first, 250 nM for the second.

Going from `CC(=O)Nc1ccc(C2CCC(N3CC(NC(=O)CNC(=O)c4cccc(C(F)(F)F)c4)C3)CC2)nc1` (centres unmarked) [Example 13, N-({1-[4-(5-Acetylamino-pyridin-2-yl)-cyclohexyl]-azetidin-3-ylcarbamoyl}-methyl)-3-trifluoromethyl-benzamide] to `N#CNc1cccc(C2CCC(N3CC(NC(=O)CNC(=O)c4cccc(C(F)(F)F)c4)C3)CC2)n1` (centres unmarked) [Example 25, N-({1-[4-(6-Cyanoamino-pyridin-2-yl)-cyclohexyl]-azetidin-3-ylcarbamoyl}-methyl)-3-trifluoromethyl-benzamide], the IC50 rises from 90 nM to 210 nM (2.3-fold).

Going from `Cc1ccc(O)c(C2CCC(N3CC(NC(=O)CNC(=O)c4cccc(C(F)(F)F)c4)C3)CC2)n1` (centres unmarked) [Example 6, N-({1-[4-(3-Hydroxy-6-methyl-pyridin-2-yl)-cyclohexyl]-azetidin-3-ylcarbamoyl}-methyl)-3-trifluoromethyl-benzamide] to `CC(C)n1cc(C2CCC(N3CC(NC(=O)CNC(=O)c4cccc(C(F)(F)F)c4)C3)CC2)ccc1=O` (single isomer, unassigned) [Example 40a, N-({1-[4-(1-Isopropyl-6-oxo-1,6-dihydro-pyridin-3-yl)-cyclohexyl]-azetidin-3-ylcarbamoyl}-methyl)-3-trifluoromethyl-benzamide], the IC50 rises from 50 nM to 330 nM (6.6-fold).

For `Nc1noc(N)c1C1CCC(N2CC(NC(=O)CNC(=O)c3cccc(C(F)(F)F)c3)C2)CC1` (centres unmarked) [Example 55, N-({1-[4-(3,5-Diimino-isoxazolidin-4-yl)-cyclohexyl]-azetidin-3-ylcarbamoyl}-methyl)-3-trifluoromethyl-benzamide], the IC50 was 125 nM.

— patent US8269015B2, “4-azetidinyl-1-heteroaryl-cyclohexane antagonists of CCR2” (Janssen Pharmaceutica N.V., priority 2009, dated 2012)
